Where a SMILES comes first, the peptide text is derived from it. [ ]: non-standard residue; d: D form. N(4-MeOBn)Gly = COc1ccc(CNCC(=O)O)cc1; NMeY = CN[C@@H](Cc1ccc(O)cc1)C(=O)O; Gly(N-CH2CH2OH) = O=C(O)CNCCO; NMeK = CN[C@@H](CCCCN)C(=O)O; Nlys = NCCCCNCC(=O)O
What was measured:
Assay type in all cases: biochemical
human 20S proteasome = system: T1, human 20S proteasome; experiment: h20S proteasome activity probed with FRET-type Dabcyl-EDANS substrate; details: for h20S stimulating capacity, Dabcyl-EDANS: 1.0-50 μM modulator
T1 construct: human proteasome isolated from erythrocytes; from tissue; host or cells: human erythrocytes
Text: (§1) To assess the influence of substitutions increasing proteolytic stability on the modulators’ capacity to stimulate chymotrypsin-like, trypsin-like, and caspase-like activity of h20S, we used classic fluorogenic substrates: Suc-LLVY-AMC, Boc-LRR-AMC, and Z-LLE-AMC, respectively. To confirm the observed stimulating capacity, we also conducted assays using a FRET-type reporter peptide with a sequence consisting of 11 residues (Lys(Dabcyl)-[…]EDANS)-Gly).[27] As we checked, the activated 20S hydrolyzed this substrate after more than one residue (Lys, Gly, and Glu), which makes it a probe better reflecting the concerted action of the proteasome’s three peptidases. […] The discrepancy in the level of activation was mainly due to the greater sensitivity of the FRET substrate, as it is not digested, unlike the AMC-based probes, by the latent proteasome, which results in greater differences in fluorescence relative to the controls. […] The ability to affect individual peptidases of the proteasome in different ways is most likely related to the allosteric mechanism of action of the modulators. Binding at a site distant from the catalytic compartment may result in greater diversity in the pathways by which the signal reaches active sites and differential effects of that signal on each peptidase.
(§2) The effect of all synthesized peptidomimetics on the catalytic activity of the proteasome was tested using a human proteasome isolated from erythrocytes. Suc-LLVY-AMC, Boc-LRR-AMC, and Z-LLE-AMC fluorogenic substrates (Bachem, Bubendorf, Switzerland) were used for assessment of the chymotrypsin-, trypsin-, and caspase-like activities, respectively. A homemade FRET-type substrate Dabcyl-EDANS (Lys(Dabcyl)-[…]EDANS)-Gly)[26] was used as an additional probe. Stock solutions of the substrates and tested peptidomimetics were prepared in dimethyl sulfoxide (DMSO), ensuring that the final concentration of DMSO in all samples remained consistent at 2%. The small fluorogenic substrates were used at a final concentration of 100 μM, while Dabcyl-EDANS was prepared at a final concentration of 15 μM. Modulators were tested in concentrations ranging from 1.0 to 50 μM, with compounds containing TAT or 6R sequences tested at lower concentrations ranging from 0.5 to 10 μM. Activity tests were conducted in 96-well plates using 50 mM Tris/HCl, pH 8.0, as an assay buffer. The final concentration of h20S proteasome was adjusted to 0.002 mg/mL (2.8 nM). The fluorescence of released aminomethylcoumarin (AMC) was monitored at 460 nm (λex was 380 nm), while the hydrolysis of Dabcyl-EDANS was detected by measuring emission at 493 nm (λex was set at 335 nm). Fluorescence measurements were taken continuously every 2 min over a 60 min period at 37 °C using a Tecan Infinite M200Pro spectrofluorometer (Tecan Trading AG, Männedorf, Switzerland). All activity assays were performed in at least three independent replicates. The relative activity was calculated in relation to the catalytic activity of the vehicle (DMSO)-treated latent proteasome, which was regarded as 100%. Statistical analysis was performed using the one-way ANOVA followed by Tukey’s post-hoc test. P-value <0.05 was considered statistically significant.

[1] = system: T2, human 20S proteasome, ChT-L peptidase; experiment: Chymotrypsin-like (ChT-L) activity of h20S probed with Suc-LLVY-AMC
T2 construct: human proteasome isolated from erythrocytes; from tissue; host or cells: human erythrocytes
Procedure: (§3) To assess the influence of substitutions increasing proteolytic stability on the modulators’ capacity to stimulate chymotrypsin-like, trypsin-like, and caspase-like activity of h20S, we used classic fluorogenic substrates: Suc-LLVY-AMC, Boc-LRR-AMC, and Z-LLE-AMC, respectively.
as §2, with “Modulators were tested in concentrations ranging from 1.0 to 50 μM, with compounds containing TAT or 6R sequences tested at lower concentrations ranging from 0.5 to 10 μM.” left out

[2] = system: T3, human 20S proteasome, T-L peptidase; experiment: Trypsin-like (T-L) activity of h20S probed with Boc-LRR-AMC; details: 100 μM Boc-LRR-AMC
T3 construct: human proteasome isolated from erythrocytes; from tissue; host or cells: human erythrocytes
Procedure: as §3
as §2, with “Modulators were tested in concentrations ranging from 1.0 to 50 μM, with compounds containing TAT or 6R sequences tested at lower concentrations ranging from 0.5 to 10 μM.” left out

[3] = system: T4, human 20S proteasome, C-L peptidase; experiment: Caspase-like (C-L) activity of h20S probed with Z-LLE-AMC; details: 100 μM Z-LLE-AMC
T4 construct: human proteasome isolated from erythrocytes; from tissue; host or cells: human erythrocytes
Text: as §1, §2

[4] = 100 μM Suc-LLVY-AMC, whole concentration range

| Compound | h20S stimulating capacity, Dabcyl-EDANS (human 20S proteasome; 15 μM Dabcyl-EDANS) | ChT-L stimulating capacity, Suc-LLVY-AMC [1, 4] | stimulation of h20S activity, Dabcyl-EDANS probe (human 20S proteasome; 15 μM Dabcyl-EDANS, level reached vs latent proteasome) [fold] | h20S stimulating potency, Dabcyl-EDANS (human 20S proteasome; at the lowest concentrations) | stimulation of h20S activity, Suc-LLVY-AMC probe ([1]; 100 μM Suc-LLVY-AMC, level reached vs latent proteasome) [fold] | T-L stimulating capacity, Boc-LRR-AMC [2] | ChT-L stimulating capacity, Suc-LLVY-AMC ([1]; at higher concentrations) | C-L stimulating capacity, Z-LLE-AMC [3] | ChT-L stimulating capacity, Suc-LLVY-AMC ([1]; at 1 μM concentration) |
| --- | --- | --- | --- | --- | --- | --- | --- | --- | --- |
| C[C@@H](O)[C@H](NC(=O)[C@H](Cc1ccccc1)NC(=O)[C@H](Cc1ccc(O)cc1)NC(=O)[C@@H](N)CCCCN)C(=O)NCC(=O)N[C@@H](CO)C(=O)N[C@@H](CCCCN)C(=O)N[C@@H](CC(=O)O)C(=O)N[C@@H](Cc1c[nH]c2ccccc12)C(=O)N[C@@H](CCCNC(=N)N)C(=O)N(CCO)CC(=O)N[C@@H](Cc1ccc(O)cc1)C(=O)N[C@@H](Cc1ccc(O)cc1)C(=O)N[C@@H](CO)C(=O)O [1b] (H-KYFTGSKDWR[Gly(N-CH2CH2OH)]YYS-OH) | less strongly than 1 | lower capacity of activating h20S | – | – | – | – | – | – | – |
| CN[C@@H](CCCCN)C(=O)N(C)[C@@H](Cc1ccc(O)cc1)C(=O)N[C@@H](Cc1ccccc1)C(=O)N[C@H](C(=O)NCC(=O)N[C@@H](CO)C(=O)N[C@@H](CCCCN)C(=O)N[C@@H](CC(=O)O)C(=O)N[C@@H](Cc1c[nH]c2ccccc12)C(=O)N[C@@H](CCCNC(=N)N)C(=O)N[C@@H](CO)C(=O)N[C@@H](Cc1ccc(O)cc1)C(=O)N[C@@H](Cc1ccc(O)cc1)C(=O)N[C@@H](CO)C(=O)O)[C@@H](C)O [1e] (H-[NMeK][NMeY]FTGSKDWRSYYS-OH) | did not lose their ability to effectively stimulate h20S | – | 12 | even more potent than 1 | 8 | – | – | – | – |
| C[C@@H](O)[C@H](NC(=O)[C@H](Cc1ccccc1)NC(=O)[C@H](Cc1ccc(O)cc1)NC(=O)[C@@H](N)CCCCN)C(=O)NCC(=O)N[C@@H](CO)C(=O)N(CCCCN)CC(=O)N[C@@H](CC(=O)O)C(=O)N[C@@H](Cc1ccc(O)cc1)C(=O)N[C@@H](CCCNC(=N)N)C(=O)N[C@@H](CCCNC(=N)N)C(=O)N[C@@H](Cc1ccc(O)cc1)C(=O)N[C@@H](Cc1ccc(O)cc1)C(=O)N[C@@H](CO)C(=O)O [2b] (H-KYFTGS[Nlys]DYRRYYS-OH) | comparable stimulatory capacity | – | – | – | – | comparable stimulatory capacity | efficiency comparable to 2 and 2a | comparable stimulatory capacity | – |
| C[C@@H](O)[C@H](NC(=O)[C@H](Cc1ccccc1)NC(=O)[C@H](Cc1ccc(O)cc1)NC(=O)CNCCCCN)C(=O)NCC(=O)N[C@@H](CO)C(=O)N(CCCCN)CC(=O)N[C@@H](CC(=O)O)C(=O)N[C@@H](Cc1ccc(O)cc1)C(=O)N[C@@H](CCCNC(=N)N)C(=O)N[C@@H](CCCNC(=N)N)C(=O)N[C@@H](Cc1ccc(O)cc1)C(=O)N[C@@H](Cc1ccc(O)cc1)C(=O)N[C@@H](CO)C(=O)O [2c] (H-[Nlys]YFTGS[Nlys]DYRRYYS-OH) | comparable stimulatory capacity | – | – | – | – | comparable stimulatory capacity | efficiency comparable to 2 and 2a | comparable stimulatory capacity | same moderate efficiency |
| COc1ccc(CN(CC(=O)N[C@@H](Cc2ccccc2)C(=O)N[C@H](C(=O)NCC(=O)N[C@@H](CO)C(=O)N[C@@H](CCCCN)C(=O)N[C@@H](CC(=O)O)C(=O)N[C@@H](Cc2ccc(O)cc2)C(=O)N[C@@H](CCCNC(=N)N)C(=O)N[C@@H](CCCNC(=N)N)C(=O)N[C@@H](Cc2ccc(O)cc2)C(=O)N[C@@H](Cc2ccc(O)cc2)C(=O)N[C@@H](CO)C(=O)O)[C@@H](C)O)C(=O)[C@@H](N)CCCCN)cc1 [2d] (H-K[N(4-MeOBn)Gly]FTGSKDYRRYYS-OH) | comparable stimulatory capacity | – | – | – | – | comparable stimulatory capacity | as inefficient as 2e | comparable stimulatory capacity | same moderate efficiency |
| COc1ccc(CN(CC(=O)N[C@@H](CCCNC(=N)N)C(=O)N[C@@H](CCCNC(=N)N)C(=O)N[C@@H](Cc2ccc(O)cc2)C(=O)N[C@@H](Cc2ccc(O)cc2)C(=O)N[C@@H](CO)C(=O)O)C(=O)[C@H](CC(=O)O)NC(=O)[C@H](CCCCN)NC(=O)[C@H](CO)NC(=O)CNC(=O)[C@@H](NC(=O)[C@H](Cc2ccccc2)NC(=O)[C@H](Cc2ccc(O)cc2)NC(=O)[C@@H](N)CCCCN)[C@@H](C)O)cc1 [2e] (H-KYFTGSKD[N(4-MeOBn)Gly]RRYYS-OH) | least effective stimulants | least effective stimulants | – | – | – | weakest activators | – | weakest activators | – |
| H-KYFTGSKDYRRYYS-OH [compound 2] | most effective h20S stimulators | most effective h20S stimulators | – | – | – | – | – | – | – |
| RKKRRQRRR [tat, fragment of the HIV-1 Tat 48–58 peptide used as cell-penetrating peptide, tested alone as control, reference compound] | – | proteasome inhibition | – | – | – | – | – | – | – |
